Experiments:
hCD8^+ T cells = test: hCD8+ T cell differentiation into effector T cells: IFNγ release, ELISA; format: cell-based, human; conditions: for IFNγ (% Control): 24 hrs, normalized per number of cells
Description: Differentiation of T Cells. The ability of T cells to differentiate from a naïve to an effector state was assessed by measuring the levels of IFNγ or GZMB synthesis following activation of the cells using a cocktail of anti-CD2/anti-CD3/anti-CD28 antibodies. Expression of IFNγ, GZMB, and other effector cytokines was measured by determining their concentration in the conditioned media 24-72 hrs after initiation of activation or by estimating the % cells expressing these cytokines using fluorescence-activated cell sorting (FACS).
Augmentation of hCD8^+ T Cell Differentiation into Effector T Cells. Naïve CD8+ T cells were isolated from human buffy coats using magnetic separation and the appropriate kit from Miltenyi Biotec. Cells were then activated using a cocktail of anti-CD2/anti-CD3/anti-CD28 antibodies. Differentiation of the cells into effector T cells was assessed by determining the levels of IFNγ and GZMB released into the media at 24 and 72 hrs, respectively using appropriate ELISA kits. Cytokine concentrations were normalized per number of cells present and expressed as % Untreated Control.

TNFα = test: In vitro inflammation assay: TNFα secretion from LPS-stimulated hMDMs, ELISA; format: cell-based, human; conditions: concentrations ≥500 μM, 1 μg/mL LPS, 6 h
Description: In Vitro Inflammation Assay. In vitro inflammation was assessed by measuring the concentration of TNFα in the conditioned media of macrophages stimulated with 0.1-1 μg/mL LPS in the presence or absence of the compound of interest after 4-6 hrs.
Inhibition of TNFα secretion. hMDMs were pretreated with various concentrations of Compound (6) for 15 min and then stimulated with 1 μg/mL LPS. Conditioned media were collected 6 h later and TNFα concentrations were determined by ELISA.

IRG1 = target: T1, IRG1 (Homo sapiens, UniProt A6NK06); test: Itaconic acid synthesis by LPS-stimulated macrophages (inhibition of IRG1), GC-MS; format: cell-based; conditions: LPS-stimulated hMDMs, 50, 100, 500 μM, LPS 8 hrs
T1 construct: Human monocytes, isolated from peripheral blood and differentiated into macrophages; endogenous in cells; host or cells: human monocyte-derived macrophages (hMDMs), M-CSF differentiated, LPS-stimulated
T1 sequence (A6NK06 1-481): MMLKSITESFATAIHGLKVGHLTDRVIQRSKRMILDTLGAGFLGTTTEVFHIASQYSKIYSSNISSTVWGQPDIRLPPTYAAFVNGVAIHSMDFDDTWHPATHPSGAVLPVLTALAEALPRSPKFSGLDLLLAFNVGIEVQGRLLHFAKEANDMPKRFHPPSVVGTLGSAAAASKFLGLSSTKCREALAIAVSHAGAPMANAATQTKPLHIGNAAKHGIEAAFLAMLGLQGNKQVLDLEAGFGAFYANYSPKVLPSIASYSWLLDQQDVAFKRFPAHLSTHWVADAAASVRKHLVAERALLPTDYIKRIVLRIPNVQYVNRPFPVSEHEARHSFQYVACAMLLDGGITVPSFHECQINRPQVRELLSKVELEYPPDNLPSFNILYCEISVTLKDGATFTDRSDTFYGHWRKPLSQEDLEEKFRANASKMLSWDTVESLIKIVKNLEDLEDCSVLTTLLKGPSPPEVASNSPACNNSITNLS
Description: Inhibition of IRG1. Itaconic acid levels are a measure of IRG1 expression/activity. To determine the activity of IRG, hMDMs were stimulated with 100 ng/mL LPS for 8 hrs in the presence or absence of the therapeutic agent. Gas chromatography-mass spectroscopy (GC-MS) was used to estimate the intracellular and extracellular concentration of the itaconic acid. In a typical assay, 1-5×10^6 cells were plated onto a 6-well plate and allowed to adhere overnight. The cells were then stimulated with 0.1-1 μg/mL LPS in the presence or absence of the compound of interest for 8 hrs. The cells were then washed and metabolites were extracted using methanol/water and acetonitrile additions. The aqueous phase of the mixture was dried and metabolites present were derivatized prior to the detection by GC-MS.
Itaconic Acid Synthesis by LPS-Stimulated Macrophages after Treatment with Compound (6). Human monocytes, isolated from peripheral blood and differentiated into macrophages in the presence of 100 ng/mL monocyte colony-stimulating factor (M-CSF) for 5 days, were plated onto a 6-well plate at a density of 1×10^6 cells/well. The cells were allowed to adhere overnight. […] Derivatized metabolites were analyzed by GC-MS. The amount of itaconic acid present in the samples was determined after peak integration. […]

SMILES: O=C(O)/C(=C\c1ccc(F)cc1)C(Cc1ccccc1)C(=O)O (centres unmarked) [Compound (6), 2-benzyl-3-[(4-flurophenyl)methylidene]butanedioic acid]
- IFNγ (% Control) (hCD8^+ T cells; 1 nM): 129 % Control
- IFNγ (% Control) (hCD8^+ T cells; 10 nM): 510 % Control
- IFNγ (% Control) (hCD8^+ T cells; 100 nM): 274 % Control
- IFNγ (% Control) (hCD8^+ T cells; 10 μM): 370 % Control
- IFNγ (% Control) (hCD8^+ T cells; 100 μM): 198 % Control
- IFNγ (% Control) (hCD8^+ T cells; 500 μM): 47 % Control
- IFNγ synthesis following TCR activation (hCD8^+ T cells; high (>100 μM) concentrations): decrease
- synthesis of INFγ following TCR activation (hCD8^+ T cells; low concentrations, 0.1 nM to 100 μM): increased synthesis
- secretion of TNFα (TNFα): reduced secretion
- extracellular levels of itaconic acid (IRG1): suppressed
- intracellular levels of itaconic acid (IRG1): suppressed
